Tests used:
[1] = test system: Puccinia recondita; assay: Test Example E: Brown rust on wheat; format: in vivo; details: Brown rust on wheat; class of control value
[2] = test system: Magnaporthe grisea; assay: whole plant or invertebrate; format: in vivo; details: Blast on rice; class of control value
[3] = test system: Botrytis cinerea; assay: Test Example B: Gray mold on tomato; details: Gray mold on tomato; class of control value
[4] = test system: Colletotrichum orbiculare; assay: Test Example H: Anthracnose on cucumber; details: Anthracnose on cucumber (Sagami Hanjiro); 250 ppm spray, 2.5 ml/pot; assessed 6 to 10 days after inoculation
[5] = test system: Alternaia brassicicola; assay: Test Example C: Alternaria sooty spot on cabbage; format: in vivo; details: Alternaria sooty spot on cabbage; class of control value
Source text: Seeds of a test plant (cabbage variety: Shikidori) were planted and cultivated until the cotyledons extended.
<Control Value> Control value=100{1−(n/3)}

[6] = test system: Plasmopara viticola; assay: Test Example G: Downy mildew on vine; details: Downy mildew on vine (Neomuscat); 250 ppm spray, 2.5 ml/pot; assessed 7 to 10 days after inoculation
[7] = test system: Blumeria graminis f. sp. hordei; assay: Test Example D: Powdery mildew on barley; details: Powdery mildew on barley; class of control value
[8] = test system: Phytophthora infestans; assay: whole plant or invertebrate; format: in vivo; details: Late blight on tomato; class of control value

SMILES | Test E control value class [1] | Test A control value class [2] | Test B control value class [3] | Test H control value class [4] | Test C control value class [5] | Test G control value class [6] | Test D control value class [7] | Test F control value class [8]
CCn1c(-c2ccc(F)cc2)c(CC(C)C)cc(Br)c1=O [compound 148] | H (more than 50% control value) | H (more than 50% control value) | H (more than 50% control value) | H (more than 50% control value) | H (more than 50% control value) | H (more than 50% control value) | H (more than 50% control value) | L (50% or less control value)
CCn1c(-c2ccc(F)cc2)c(CC(C)C)cc(Cl)c1=O [compound 149] | H (more than 50% control value) | H (more than 50% control value) | H (more than 50% control value) | H (more than 50% control value) | H (more than 50% control value) | H (more than 50% control value) | H (more than 50% control value) | L (50% or less control value)
CCn1c(-c2c(F)cc(F)cc2F)c(C(C)(C)O)cc(Cl)c1=O [compound 150] | H (more than 50% control value) | H (more than 50% control value) | H (more than 50% control value) | H (more than 50% control value) | H (more than 50% control value) | H (more than 50% control value) | H (more than 50% control value) | L (50% or less control value)
CCN(Cc1cc(Cl)c(=O)n(CC)c1-c1c(F)cc(F)cc1F)OC [compound 151] | H (more than 50% control value) | H (more than 50% control value) | H (more than 50% control value) | H (more than 50% control value) | H (more than 50% control value) | H (more than 50% control value) | H (more than 50% control value) | L (50% or less control value)
CCN(Cc1cc(Cl)c(=O)n(CC)c1-c1c(F)cc(OC)cc1F)OC [compound 152] | H (more than 50% control value) | H (more than 50% control value) | H (more than 50% control value) | H (more than 50% control value) | H (more than 50% control value) | H (more than 50% control value) | H (more than 50% control value) | L (50% or less control value)
CCn1c(-c2c(F)cc(OC)cc2F)c(C(C)(O)CC(C)C)cc(Cl)c1=O (centres unmarked) [compound 153] | H (more than 50% control value) | L (50% or less control value) | H (more than 50% control value) | H (more than 50% control value) | H (more than 50% control value) | H (more than 50% control value) | H (more than 50% control value) | L (50% or less control value)
CCn1c(-c2c(F)cc(F)cc2F)c(C(C)(O)CC(C)C)cc(Cl)c1=O (centres unmarked) [compound 154] | H (more than 50% control value) | H (more than 50% control value) | H (more than 50% control value) | H (more than 50% control value) | H (more than 50% control value) | H (more than 50% control value) | H (more than 50% control value) | L (50% or less control value)
CC(C)Cc1cc(Cl)c(=O)n(C)c1-c1ccc(F)cc1 [compound 155] | H (more than 50% control value) | L (50% or less control value) | H (more than 50% control value) | L (50% or less control value) | H (more than 50% control value) | H (more than 50% control value) | H (more than 50% control value) | L (50% or less control value)
CC(C)Cc1cc(Br)c(=O)n(C)c1-c1ccc(F)cc1 [compound 156] | H (more than 50% control value) | H (more than 50% control value) | H (more than 50% control value) | L (50% or less control value) | H (more than 50% control value) | L (50% or less control value) | H (more than 50% control value) | L (50% or less control value)
CCn1c(-c2ccc(Cl)cc2F)c(CC(C)C)ccc1=O [compound 157] | H (more than 50% control value) | H (more than 50% control value) | H (more than 50% control value) | L (50% or less control value) | H (more than 50% control value) | H (more than 50% control value) | H (more than 50% control value) | L (50% or less control value)
CCn1c(-c2ccc(Cl)cc2F)c(CC(C)C)cc(Cl)c1=O [compound 158] | H (more than 50% control value) | H (more than 50% control value) | H (more than 50% control value) | H (more than 50% control value) | H (more than 50% control value) | H (more than 50% control value) | H (more than 50% control value) | L (50% or less control value)
CCn1c(-c2ccc(Cl)cc2F)c(CC(C)C)cc(Br)c1=O [compound 159] | H (more than 50% control value) | H (more than 50% control value) | H (more than 50% control value) | H (more than 50% control value) | H (more than 50% control value) | H (more than 50% control value) | H (more than 50% control value) | L (50% or less control value)
CCn1c(-c2c(F)cc(F)cc2F)c(C(=O)CC(C)C)cc(Cl)c1=O [compound 160] | H (more than 50% control value) | L (50% or less control value) | H (more than 50% control value) | H (more than 50% control value) | H (more than 50% control value) | H (more than 50% control value) | H (more than 50% control value) | L (50% or less control value)

Source: US11147272B2, “Pyridone compounds and agricultural and horticultural fungicides comprising the same as active ingredients” (MITSUI CHEMICALS AGRO, INC., priority 2017, dated 2021)
